Bounds are passed on as bounds.

This passage reports EC50 results from ChEMBL document CHEMBL2046380, “Synthesis and structure-activity relationship of disubstituted benzamides as a novel class of antimalarial agents” (Bioorg Med Chem Lett, 2012).

One assay relates to HepG2. The experiment in a line: Cytotoxicity against human HepG2 cells after 72 hrs by […] CellTiterGlo reagent assay. The format is cell-based. Conditions: HepG2, 72 h.
For assay [1], the system named is Plasmodium falciparum. The experiment in a line: Antimalarial activity against […] incubated for 72 hrs by DNA staining based MARK1 growth inhibition assay. The format is functional, organism-based.
Assay [2] has as its system Plasmodium falciparum. The experiment in a line: Antimalarial activity against chloroquine-sensitive Plasmodium falciparum 3D7 incubated for 72 hrs by DNA staining based MAR3D7 growth inhibition assay. The format is functional, organism-based. Conditions: 3D7, 72 h.
In the next assay the test system is Raji. In words: Cytotoxicity against human Raji cells after 72 hrs by […] CellTiterGlo reagent assay. The format is cell-based. In general terms: Alamar Blue is a resazurin reagent that responds to reducing activity.
A further assay has as its system BJ. In words: Cytotoxicity against human BJ cells after 72 hrs by […] CellTiterGlo reagent assay. The format is cell-based.
Another assay concerns HEK293. In words: Cytotoxicity against human HEK293 cells after 72 hrs by […] CellTiterGlo reagent assay. The format is cell-based. Conditions: HEK293, 72 h.

Usually EC50 stands for the midpoint of the concentration-response curve. Low readings indicate greater potency, high ones weaker potency. `CCOC(=O)CCCCCOc1cccc(CN(C(=O)c2ccc(-c3cccc4ccccc34)cc2)C(C)C)c1`: the EC50 is > 26 µM in the assay with HepG2; > 15 µM in the assay with Plasmodium falciparum [1]; > 15 µM in the assay on Plasmodium falciparum [2]; > 26 µM with Raji; > 26 µM with BJ; > 26 µM in the assay on HEK293.
With `CCOC(=O)CCCCCOc1cccc(CN(C(=O)c2ccc(-c3cccc(Oc4ccccc4)c3)cc2)C(C)C)c1`, the EC50 in the assay with HepG2 is > 26 µM; in the assay with Plasmodium falciparum [1], > 10.9 µM; with Plasmodium falciparum [2], > 10.9 µM; with Raji, > 19.7 µM; in the assay on BJ, > 19.7 µM; in the assay with HEK293, > 19.7 µM.
For the compound `CCOC(=O)CCCCCOc1cccc(CN(C(=O)c2ccc(-c3ccc4c(c3)OCCO4)cc2)C(C)C)c1`, the EC50 is > 24.5 µM in the assay with HepG2; > 13.5 µM in the assay with Plasmodium falciparum [1]; > 13.5 µM in the assay with Plasmodium falciparum [2]; > 24.5 µM with Raji; > 24.5 µM in the assay on BJ; > 24.5 µM with HEK293.
Turning to `CC(C)N(Cc1cccc(OCCCCCC(=O)O)c1)C(=O)c1ccc(-c2ccc3c(c2)OCCO3)cc1`, the EC50 is > 21.9 µM with HepG2; > 12.1 µM in the assay with Plasmodium falciparum [1]; > 12.1 µM with Plasmodium falciparum [2]; > 21.9 µM in the assay with Raji; > 21.9 µM with BJ; > 21.9 µM in the assay on HEK293.
As to `CC(C)N(C(=O)c1ccc(-c2ccc3c(c2)OCO3)cc1)[C@H](C)c1ccccc1`, the 50% effective concentration (EC50) in the assay on HepG2 was > 26 µM; in the assay on Plasmodium falciparum [1], > 15 µM; in the assay on Plasmodium falciparum [2], > 15 µM; with Raji it was > 26 µM; with BJ, > 26 µM; with HEK293, > 26 µM.
On to `CCOC(=O)CCCCCOc1cccc(CN(C(=O)c2ccc(-c3cccnc3)cc2)C(C)C)c1`, for which the concentration giving a half-maximal response (EC50) in the assay on HepG2 was > 26 µM; in the assay on Plasmodium falciparum [1], > 15 µM; with Plasmodium falciparum [2], > 15 µM; in the assay with Raji, > 26 µM; in the assay with BJ, > 26 µM; in the assay with HEK293, > 26 µM.
Regarding `CC(C)N(Cc1cccc(OCCCCCC(=O)O)c1)C(=O)c1ccc(-c2cccc(S(C)(=O)=O)c2)cc1`, the EC50 is > 26 µM in the assay on HepG2; > 15 µM in the assay with Plasmodium falciparum [1]; > 15 µM in the assay on Plasmodium falciparum [2]; > 26 µM in the assay with Raji; > 26 µM in the assay with BJ; > 26 µM in the assay with HEK293.
As for `CCOC(=O)CCCCCOc1cccc(CN(C(=O)c2ccc(-c3cccc(Cl)c3)cc2)C(C)C)c1`, the 50% effective concentration (EC50) in the assay with HepG2 is > 18.5 µM; in the assay with Plasmodium falciparum [1], > 10.2 µM; with Plasmodium falciparum [2] it was > 10.2 µM; in the assay with Raji, > 18.5 µM; in the assay on BJ it was > 18.5 µM; in the assay on HEK293, > 18.5 µM.
Consider `O=C(O)c1cc(-c2ccco2)nc2ccccc12`, for which the EC50 with HepG2 is > 26 µM; in the assay on Plasmodium falciparum [1], > 15 µM; in the assay with Plasmodium falciparum [2], > 15 µM; with Raji it was > 26 µM; in the assay on BJ, > 26 µM; in the assay with HEK293 it was > 26 µM.
On to `CCOC(=O)CCCCCOc1cccc(CN(C(=O)c2ccc(-c3cccc(N(C)C)c3)cc2)C(C)C)c1`, for which the concentration for a half-maximal effect (EC50) is > 26 µM in the assay with HepG2; > 15 µM with Plasmodium falciparum [1]; > 15 µM in the assay on Plasmodium falciparum [2]; > 26 µM with Raji; > 26 µM in the assay on BJ; > 26 µM in the assay with HEK293.
For `CCOC(=O)CCCCCOc1cccc(CN(C(=O)c2ccc(-c3cccc(OCc4ccccc4)c3)cc2)C(C)C)c1`, the half-maximal effective concentration (EC50) in the assay on HepG2 was > 26 µM; in the assay on Plasmodium falciparum [1] it was > 15 µM; in the assay on Plasmodium falciparum [2], > 15 µM; with Raji, > 26 µM; with BJ, > 26 µM; in the assay with HEK293, > 26 µM.
For the compound `CCOC(=O)CCCCCOc1cccc(CN(C(=O)c2ccc(-c3ccc4cc[nH]c4c3)cc2)C(C)C)c1`, the concentration for a half-maximal effect (EC50) was > 26 µM in the assay on HepG2; > 15 µM in the assay with Plasmodium falciparum [1]; > 15 µM with Plasmodium falciparum [2]; > 26 µM with Raji; > 26 µM in the assay with BJ; > 26 µM with HEK293.
Take `CCOC(=O)CCCCCOc1cccc(CN(C(=O)c2ccc(-c3cccc(Br)c3)cc2)C(C)C)c1`: the EC50 is > 26 µM in the assay on HepG2; > 15 µM with Plasmodium falciparum [1]; > 15 µM in the assay with Plasmodium falciparum [2]; > 26 µM in the assay with Raji; > 26 µM in the assay with BJ; > 26 µM with HEK293.
In the case of `CCOC(=O)CCCCCOc1ccc(CO)cc1`, the EC50 in the assay on HepG2 is > 27.2 µM; with Plasmodium falciparum [1] it was > 15 µM; with Plasmodium falciparum [2], > 15 µM; in the assay on Raji it was > 27.2 µM; with BJ, > 27.2 µM; with HEK293, > 27.2 µM.
As to `CC(=O)Nc1cccc(-c2ccc(C(=O)N(Cc3cccc(OCCCCCC(=O)O)c3)C(C)C)cc2)c1`, the half-maximal effective concentration (EC50) in the assay on HepG2 is > 26 µM; with Plasmodium falciparum [1] it was > 15 µM; with Plasmodium falciparum [2], > 15 µM; in the assay with Raji, > 26 µM; with BJ, > 26 µM; in the assay on HEK293, > 26 µM.
Regarding `COc1cc2c(cc1OC)C1(CC=CCC1)N(C(C)=O)CC2` (stereo not drawn), the EC50 in the assay with HepG2 was > 13 µM; with Plasmodium falciparum [1] it was > 7.51 µM; in the assay on Plasmodium falciparum [2], > 7.51 µM; in the assay on Raji, > 13 µM; with BJ it was > 13 µM; in the assay with HEK293, > 13 µM.
As to `CCOC(=O)CCCCCOc1cccc(CNC(C)C)c1`, the concentration giving a half-maximal response (EC50) with HepG2 was > 26 µM; in the assay on Plasmodium falciparum [1], > 15 µM; in the assay with Plasmodium falciparum [2], > 15 µM; in the assay with Raji it was > 26 µM; in the assay on BJ, > 26 µM; with HEK293 it was > 26 µM.
For `C#CCCC(=O)NCCc1ccc(OC)c(OC)c1`, the 50% effective concentration (EC50) with HepG2 is > 13 µM; in the assay on Plasmodium falciparum [1] it was > 7.51 µM; in the assay with Plasmodium falciparum [2], > 7.51 µM; with Raji, > 13 µM; in the assay on BJ, > 13 µM; in the assay on HEK293, > 13 µM.
On to `CCOC(=O)CCCCCOc1cccc(CN(C(=O)c2ccc(-c3cc(OC)ccc3F)cc2)C(C)C)c1`, for which the EC50 is > 26 µM in the assay on HepG2; > 15 µM in the assay on Plasmodium falciparum [1]; > 15 µM in the assay with Plasmodium falciparum [2]; > 26 µM in the assay on Raji; > 26 µM in the assay on BJ; > 26 µM with HEK293.
Consider `COc1cc(OC)cc(-c2ccc(C(=O)N(Cc3cccc(OCCCCCC(=O)O)c3)C(C)C)cc2)c1`, for which the concentration for a half-maximal effect (EC50) was > 26 µM with HepG2; > 15 µM in the assay on Plasmodium falciparum [1]; > 15 µM in the assay with Plasmodium falciparum [2]; > 26 µM in the assay with Raji; > 26 µM in the assay on BJ; > 26 µM in the assay on HEK293.
With `COC(=O)c1cc(-c2cccs2)nc2ccccc12`, the half-maximal effective concentration (EC50) was > 26 µM in the assay on HepG2; > 15 µM in the assay with Plasmodium falciparum [1]; > 15 µM in the assay on Plasmodium falciparum [2]; > 26 µM in the assay with Raji; > 26 µM with BJ; > 26 µM in the assay with HEK293.
Take `CC(C)COc1cccc(-c2ccc(C(=O)N(Cc3cccc(OCCCCCC(=O)O)c3)C(C)C)cc2)c1`: the EC50 in the assay with HepG2 was > 26 µM; in the assay on Plasmodium falciparum [1], > 15 µM; in the assay on Plasmodium falciparum [2], > 15 µM; with Raji, > 26 µM; in the assay with BJ, > 26 µM; in the assay on HEK293 it was > 26 µM.
Consider `CCOC(=O)CCCCCOc1cccc(CN(C(=O)c2ccc(-c3cccc(CC(=O)O)c3)cc2)C(C)C)c1`, for which the EC50 with HepG2 is > 26 µM; in the assay with Plasmodium falciparum [1], > 15 µM; with Plasmodium falciparum [2] it was > 15 µM; with Raji it was > 26 µM; in the assay with BJ it was > 26 µM; in the assay on HEK293, > 26 µM.
